Data on 4 compounds can be found in article PMC11984905, “Chiral Switch of Gadopiclenol: New Standards in MRI Probes” (Advanced Science, 2025).

Data set [1] can be described thus: Relaxivity at 21 / 400 MHz and 25 °C in 0.15 M NaCl. Type of data set: physicochemical. The settings on record: 0.15 M NaCl. Here is the method:
The relaxivity values were calculated from the longitudinal relaxation time of H2O protons (T 1) measured at 21 MHz on a Stelar relaxometer connected to a Bruker WP80 NMR electromagnet adapted to variable‐field measurements (15−80 MHz proton Larmor frequency). The temperature of the sample holder was controlled with a thermostatted air stream. The longitudinal relaxation time was measured with the “inversion recovery” method (180° – τ – 90°) by using 12 different τ values with typical 90° pulse width of 6.4 µs, 4 scans. The measurements were performed with 1 mM solution of the Gd(III)‐complexes with rac‐L1, ent‐L1, rac‐L2, and ent‐L2 ligands, so the relaxivity values were given as r 1 = […] where T 1p and T 1w were the relaxation time of bulk water protons in the presence and absence of paramagnetic species, respectively. The variable pH relaxivity measurements of Gd(III)‐complexes with rac‐L1, ent‐L1, rac‐L2, and ent‐L2 ligands could be carried out by direct titration of the samples in the pH range 2.5–9.0 (21 MHz, 25 °C, 0.15 M NaCl). The pH was adjusted by stepwise addition of concentrated NaOH or HCl solution.
The stability constant of Gd(III)‐complexes with rac‐L2 and ent‐L2 ligands were determined by the measurement of the proton relaxation rates (r 1) studying the competition reaction of rac‐L2 and ent‐L2 ligands with AAZTA for Gd(III) ion at pH = 4.0 in 0.15 M NaCl solution. In these experiments, the concentration of Gd^3+, rac‐L2, and ent‐L2 ligands was 2.0 mM, while that of the AAZTA was varied between 1.0 and 6.0 mM (5 × 1.5 mL samples). The pH was adjusted to pH 4.0 by stepwise addition of concentrated NaOH or HCl solutions. The samples were kept at 70 °C for a month and then at 25°C for two months in order to attain the equilibrium (the time needed to reach the equilibria was determined by ^1H‐NMR relaxometry). ^1H‐NMR relaxometric measurement of Gd(III) – rac‐L2 – AAZTA and Gd(III) – ent‐L2 – AAZTA systems were performed with a Bruker Avance III 400 (9.4 T) equipped with BB inverse z gradient probe (5 mm). The longitudinal relaxation time (T 1) was measured with the “inversion recovery” method (180° – τ – 90°) by using 12 different τ values with typical 90° pulse width of 12.0 µs, 4 scans at 298 K. The stability constants of [Gd(rac‐L2)] and [Gd(ent‐L2)] complexes were calculated by considering the protonation constants of AAZTA ligand and the stability constant of [Gd(AAZTA)]^− complex (AAZTA: logK 1 ^H = 10.06, logK 2 ^H = 6.50, logK 3 ^H = 3.77, logK 4 ^H = 2.33, logK 5 ^H = 1.51; [Gd(AAZTA)]^−: logK GdL = 18.93, 0.15 M NaCl, 25 °C).^[ [47] ^] The equilibrium constants were calculated with the program PSEQUAD.^[ [48] ^]

The nature of data set [2]: Stability and protonation constants of Cu(II)-complexes (spectrophotometry, pH-potentiometry). The format is physicochemical. The settings on record: 0.15 M NaCl, 25 °C. Here is the method:
The stability constants of the Cu(II)‐complexes with rac‐L1, ent‐L1, rac‐L2 and ent‐L2 ligands were determined by spectrophotometry studying the Cu(II) – rac‐L1, Cu(II) – ent‐L1, Cu(II) – rac‐L2 and Cu(II) – ent‐L2 systems at the absorption band of Cu(II)‐complexes at [H^+] = 0.01–1.0 M in the wavelength range of 400–800 nm. The concentrations of CuCl2, rac‐L1, ent‐L1, rac‐L2 and ent‐L2 ligands were 0.002 M. The H^+ concentration in the samples was adjusted with the addition of calculated amounts of 3 M HCl. (I = [Na^+]+[H^+] = 0.15, [H^+]≤0.15 M). The samples were kept at 25 °C for a week. The absorbance values of the samples were determined at 11 wavelengths (575, 595, 615, 635, 655, 675, 695, 715, 735, 755, and 775 nm). For the calculations of the stability and protonation constants of the Cu(II)‐complexes, the molar absorptivities of CuCl2 and Cu(II)‐complexes were determined by recording the spectra of 1.0 × 10^−3, 1.5 × 10^−3, 2.0 × 10^−3, and 2.5 × 10^−3 M solutions of CuCl2 and Cu(II)‐complexes in the pH range of 1.7–7.5. The pH was adjusted by stepwise addition of concentrated NaOH or HCl solutions. The spectrophotometric measurements were made with a PerkinElmer Lambda 365 UV–vis spectrophotometer at 25 °C, using 1.0 cm cells.
The stability and protonation constants of Cu(II) complexes with rac-L1, ent-L1, rac-L2 and ent-L2 have been determined by spectrophotometry. The equilibrium reaction (Equation (S8)) has been studied in the [H^+] range of 0.01 – 1.0 M (the ionic strength was constant I=[Na^+]+[H^+]=0.15 in the samples [H^+]≤0.15 M), where the formation of Cu^2+, CuHx-yL and HxL species was assumed ([Cu(rac-L1)]^4- and [Cu(ent-L1)]^4-: x=6 and 7, y=4 and 5; [Cu(rac-L2)]^4- and [Cu(ent-L2)]^4-: x=3 and 4, y=1 and 2).
The protonation constants of Cu(II)-complexes with rac-L1, ent-L1, rac-L2 and ent-L2 have been determined by pH-potentiometric and spectrophotometric titrations of the complexes in the pH range 1.7 – 7.0. These studies reveal that [Cu(rac-L1)]^4- and [Cu(ent-L1)]^4- complexes can form mono-, di-, tri, tetra- and penta-protonated species via the protonation of all distant and two closer carboxylate groups of the pendant arms. Moreover, the pH potentiometric studies also indicate that the [Cu(rac-L2)]^- and [Cu(ent-L2)]^- complexes can form mono- and di-protonated species via the protonation of two carboxylate groups. […] Moreover, the maximum of the absorption band for the [Cu(H5L)]^+ species in Cu^2+ – ent-L1 system is also similar to that of [Cu(H2L)]^+ in Cu^2+ – ent-L2 system ([…], Figures S45 and S47). The maximum of the absorption band is shifted from 730 to 750 nm by the deprotonation of [Cu(H5L)]^+ and [Cu(H2L)]^+ via the formation of [Cu(H4L)] and [Cu(HL)] species in Cu^2+– rac-L1 and Cu^2+– rac-L2 systems (Figures S44 and S46).

As to `O=C(O)CCC(C(=O)O)N1CCN(C(CCC(=O)O)C(=O)O)Cc2cccc(n2)CN(C(CCC(=O)O)C(=O)O)CC1` (racemic) [rac‐L1, 2,2’,2’’-[3,6,9,15-tetraazabicyclo[9.3.1]pentadeca-1(15),11,13-triene-3,6,9-triyl]tripentanedioic acid], in data set [1] (21 MHz), the “Relaxivity of GdH2L species” value was 9.61 ± 0.06 mM⁻¹ s⁻¹, the “Relaxivity of GdH3L species” value is 10.1 ± 0.1 mM⁻¹ s⁻¹, the “Relaxivity of GdH4L species” value is 11.7 ± 0.1 mM⁻¹ s⁻¹ and the “Relaxivity of GdHL species” value turned out to be 9.61 ± 0.06 mM⁻¹ s⁻¹. In addition, in data set [1] (21 MHz), the “Relaxivity of GdL species” value turned out to be 9.61 ± 0.06 mM⁻¹ s⁻¹. In data set [2], the “logK CuL” value is reported as 23.26(4), the logKCuH2L was 4.80 (2), the logKCuH3L is on record as 4.28 (2) and the logKCuH4L was 3.69 (2). Moreover, in data set [2], the logKCuH5L was 2.33 (2) and the logKCuHL was 5.38 (3).
Consider `O=C(CCC(C(=O)O)N1CCN(C(CCC(=O)NCC(O)CO)C(=O)O)Cc2cccc(n2)CN(C(CCC(=O)NCC(O)CO)C(=O)O)CC1)NCC(O)CO` (racemic) [rac‐L2], for which the “Relaxivity of GdL species” value in data set [1] (21 MHz) stood at 14.8 ± 0.1 mM⁻¹ s⁻¹. In addition, in data set [1] (400 MHz), the “Relaxivity of GdL species” value worked out at 10.8 ± 0.1 mM⁻¹ s⁻¹. In addition, in data set [2], the “logK CuL” value is 21.04 (5), the logKCuH2L is reported as 2.58 (5) and the logKCuHL was 4.42 (4).
As for `O=C(O)CCC(C(=O)O)N1CCN(C(CCC(=O)O)C(=O)O)Cc2cccc(n2)CN(C(CCC(=O)O)C(=O)O)CC1` (stereo not drawn) [ent‐L1], in data set [1] (21 MHz), the “Relaxivity of GdH2L species” value came to 12.2 ± 0.2 mM⁻¹ s⁻¹, the “Relaxivity of GdH3L species” value was 11.8 ± 0.1 mM⁻¹ s⁻¹, the “Relaxivity of GdHL species” value is 12.1 ± 0.1 mM⁻¹ s⁻¹ and the “Relaxivity of GdL species” value was found to be 12.9 ± 0.1 mM⁻¹ s⁻¹. Besides, in data set [2], the “logK CuL” value is reported as 23.22 (6), the logKCuH2L is 4.72 (2), the logKCuH3L is 4.11 (2) and the logKCuH4L is reported as 3.36 (2). In addition, in data set [2], the logKCuH5L is 1.31 (2) and the logKCuHL is 5.25 (2).
Consider `O=C(CCC(C(=O)O)N1CCN(C(CCC(=O)NCC(O)CO)C(=O)O)Cc2cccc(n2)CN(C(CCC(=O)NCC(O)CO)C(=O)O)CC1)NCC(O)CO` (stereo not drawn) [ent‐L2], for which the “Relaxivity of GdL species” value in data set [1] (21 MHz) was 16.2 ± 0.1 mM⁻¹ s⁻¹. For the same compound, the “Relaxivity of GdL species” value in data set [1] (400 MHz) amounted to 11.8 ± 0.1 mM⁻¹ s⁻¹. In data set [2], the “logK CuL” value is 21.52 (4), the logKCuH2L was 1.44 (1) and the logKCuHL is reported as 3.27 (1).
